“Also recorded” adds a separate entry of the source.
What was measured:
[1] = target: T1, BCL-XL (Homo sapiens, UniProt Q07817); test: Inhibition evaluated by measuring dissociation constant (Kd); type: binding
T1 construct: Recombinant full length BCL-XL was produced; poly-His (N); made in house; host or cells: E. coli BL21
Protocol: (§1) Predicted binding mode of some compounds of the present invention to a BCL-2 protein is illustrated by FIG. 1 (binding of compound 11 shown below), FIG. 2A (binding of compound 1 shown above), and FIG. 2B (binding of compound 2 shown above). […] FIG. 4 and FIG. 5 show such NMR data for compounds 6 and 7 shown above. The inhibition was also evaluated by measuring dissociation constant (Kd) values for some compounds of the invention.

[2] = test system: B6BCL-2 transgenic mouse; test: In vivo test in the B6BCL-2 transgenic mouse; details: for In vivo activity compared with known compounds / Order of potency in terms of in vivo efficacy: B6BCL-2 transgenic mouse; for Order of potency in terms of in vivo efficacy / Order of severity of toxic effect: rank order; for Order of severity of toxic effect: diminishing severity
Protocol: Some compounds of the invention were also tested in vivo in the B6BCL-2 transgenic mouse. […] Gossypol is described, e.g., in U.S. Pat. No. 7,186,708. Apogossypol is described, e.g., in Meyers A. I.; Willemsen J. J., Tetrahedron Letters, vol. 37, No. 6, February, […], pp. 791-792.

[3] = target: T1, BCL-XL; test: NMR spectroscopy binding test (1D 1H / 2D [15N,1H]-HSQC); details: NMR data, FIGS. 3-5; negative control
Protocol: as §1
For all NMR experiments, BCL-xL was exchanged into 50 mM phosphate buffer at pH 7.5 and measurements were performed at 30° C. 2D [^15N,^1H]-HSQC spectra for BCL-xL were measured with 0.5 mM samples of ^15N-labeled protein. All experiments were performed with a 600 MHz Bruker Avance spectrometer, both equipped with either a TXI probe or a TCI cryoprobe. In all experiments, dephasing of residual water signals was obtained with a WATERGATE sequence. In order to test the ability of test compounds to bind to Bcl-xL, a 25 μM sample of the protein was prepared and 1D ^1H NMR spectra were collected in absence and presence of test compounds. By observing the aliphatic region of the spectra, binding can be readily detected in these simple experiments due to chemical shift changes in active site methyl groups of Ile, Leu, Thr, Val or Ala (region between 0.8 and 0.3 ppm).

[4] = test system: Triplet B6Bcl2 mice; test: Delivery of Epalrestat in vivo, spleen weight in Triplet B6Bcl2 mice
Protocol: Epalrestat (compound 11) was given to Triplet B6Bcl2 mice at a daily dose of 0.12 mmol/kg for 3 days (i.e., QDX3) through oral gavage. […] Both Epalrestat and the negative control were dissolved in PBS.
After 3 days, the spleens of the animals were removed.

T1 sequence (Q07817 whole entry, species assumed): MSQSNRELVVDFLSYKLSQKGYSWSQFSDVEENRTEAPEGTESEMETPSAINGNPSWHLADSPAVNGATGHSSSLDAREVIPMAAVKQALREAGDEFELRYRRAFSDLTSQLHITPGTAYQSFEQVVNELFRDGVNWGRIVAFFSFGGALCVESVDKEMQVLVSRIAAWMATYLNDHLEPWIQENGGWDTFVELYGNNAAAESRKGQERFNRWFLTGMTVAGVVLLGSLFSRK

| Compound | Kd [1] | In vivo activity compared with known compounds [2] | Order of potency in terms of in vivo efficacy [2] | Order of severity of toxic effect [2] | also measured |
| --- | --- | --- | --- | --- | --- |
| CC(=C\c1ccccc1)/C=C1/SC(=S)N(C(C(=O)O)c2ccccc2)C1=O (stereo not shown) [Compound 1, 2-[5-(2-methyl-3-phenylallylidene)-4-oxo-2-thioxothiazolidin-3-yl]-2-phenylacetic acid] | 1 µM | – | – | – | – |
| CC(=C\c1ccccc1)/C=C1/SC(=S)N(C(C(=O)O)C(C)C)C1=O (stereo not shown) [Compound 2, 3-methyl-2-[5-(2-methyl-3-phenylallylidene)-4-oxo-2-thioxothiazolidin-3-yl]butanoic acid] | 5.7 µM | – | – | – | – |
| COc1cc2cc(C=C3SC(=S)N(C(C(=O)O)C(C)C)C3=O)c(C)cc2c(C(C)C)c1OC (stereo not shown) [Compound 3, 2-[5-(1-isopropyl-2,3-dimethoxy-7-methylnaphthalen-6-yl-methylene)-4-oxo-2-thioxothiazolidin-3-yl]-3-methylbutanoic acid] | – | equal to, or better than, known compounds gossypol and apogossypol | compound 11>compound 5>compound 3=apogossypol=gossypol | gossypol>>>apogossypol>compound 5=compound 3=compound 11 | – |
| COc1cc2c(cc1OC)C(Br)=C(C=C1SC(=S)N(C(C(=O)O)C(C)C)C1=O)CC2 (stereo not shown) [Compound 5, 2-[5-((4-bromo-1,2-dihydro-6,7-dimethoxynaphthalen-3-yl)methylene)-4-oxo-2-thioxothiazolidin-3-yl]-3-methylbutanoic acid] | – | equal to, or better than, known compounds gossypol and apogossypol | compound 11>compound 5>compound 3=apogossypol=gossypol | gossypol>>>apogossypol>compound 5=compound 3=compound 11 | – |
| CC(C)C(C(=O)O)N1C(=O)C(=CC2=C(Br)c3cc(O)c(O)cc3CC2)SC1=S (stereo not shown) [Compound 6, 2-[5-((4-bromo-1,2-dihydro-6,7-dihydroxynaphthalen-3-yl)methylene)-4-oxo-2-thioxothiazolidin-3-yl]-3-methylbutanoic acid] | – | – | – | – | Binding to BCL-XL by NMR [3]: binding had occurred |
| COc1c(C=C2SC(=S)N(C(C(=O)O)C(C)C)C2=O)cc2ccccc2c1OC (stereo not shown) [Compound 7, 2-[5-((1,2-dimethoxynaphthalen-3-yl)methylene)-4-oxo-2-thioxothiazolidin-3-yl]-3-methylbutanoic acid] | – | – | – | – | Binding to BCL-XL by NMR [3]: binding had occurred |
| CC(C)C(C(=O)O)N1C(=O)C(=CC=Cc2ccccc2)SC1=S (stereo not shown) [Compound 9, 3-methyl-2-[4-oxo-5-(3-phenylallylidene)-2-thioxothiazolidin-3-yl]butanoic acid] | 10.6 µM | – | – | – | – |
| CC(C(=O)O)N1C(=O)C(=CC=Cc2ccccc2)SC1=S (stereo not shown) [Compound 10, 2-[4-oxo-5-(3-phenylallylidene)-2-thioxothiazolidin-3-yl]propanoic acid] | 34.4 µM | – | – | – | – |
| CC(=Cc1ccccc1)C=C1SC(=S)N(CC(=O)O)C1=O [Compound 11, 2-[5-(2-methyl-3-phenylallylidene)-4-oxo-2-thioxothiazolidin-3-yl]acetic acid] | 11.8 µM | equal to, or better than, known compounds gossypol and apogossypol | compound 11>compound 5>compound 3=apogossypol=gossypol | gossypol>>>apogossypol>compound 5=compound 3=compound 11 | Shrinkage of spleen ([4]; dosed orally or intraperitoneally): induced shrinkage of spleen whether dosed orally or intraperitoneally; Weight loss or signs of toxicity via physical exam ([4]; intraperitoneal and oral routes, listed as Epalrestat): no weight loss or signs of toxicity via physical exam; also recorded: qualitatively safer than ApoG; Spleen Weight ([4]; oral gavage, 0.12 mmol/kg daily for 3 days (QDX3), in PBS, spleens removed after 3 days): 193.9 mg; % spleen shrinkage, intraperitoneal versus oral dosing ([4]; route comparison): Intraperitoneal injection induced more % shrinkage than oral dosing; Binding to BCL-XL by NMR [3]: binding had occurred |
| Cc1cc2c(C(C)C)c(O)c(O)cc2c(O)c1-c1c(C)cc2c(C(C)C)c(O)c(O)cc2c1O [apogossypol] | – | – | compound 11>compound 5>compound 3=apogossypol=gossypol | gossypol>>>apogossypol>compound 5=compound 3=compound 11 | – |
| Cc1cc2c(C(C)C)c(O)c(O)c(C=O)c2c(O)c1-c1c(C)cc2c(C(C)C)c(O)c(O)c(C=O)c2c1O [gossypol] | – | – | – | gossypol>>>apogossypol>compound 5=compound 3=compound 11 | – |
| apogossypolone | – | not effective at all | – | – | – |

Source: US20090124675A1, “INHIBITORS OF ANTI-APOPTOTIC PROTEINS” (Burnham Institute for Medical Research, priority 2007, published 2009)
